Results published in US12441727B2, “Tricyclic compounds as inhibitors of KRAS” (Incyte Corporation, priority 2021, dated 2025).
pIC50: −log10 of the molar value. Where two headings read alike, the source gives them in different places.

Columns and labels:
KRAS G12C = KRAS G12C (Homo sapiens, UniProt P01116, G12C); assay: GDP-GTP exchange assay (KRAS_G12C exchange assay); format: biochemical; details: bodipy-loaded KRAS G12C 2.5 nM, SOS1 150 nM, 2 hours pre-incubation with inhibitor; read-out: G12C_exchange
KRAS G12C, sequence (P01116 1-188 isoform P01116-2 G12C): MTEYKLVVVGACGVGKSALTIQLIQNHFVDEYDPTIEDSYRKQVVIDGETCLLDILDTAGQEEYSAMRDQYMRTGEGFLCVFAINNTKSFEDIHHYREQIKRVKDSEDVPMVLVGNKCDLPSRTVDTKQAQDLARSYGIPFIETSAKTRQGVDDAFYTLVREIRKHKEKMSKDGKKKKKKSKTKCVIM
Description: The inhibitor potency of the exemplified compounds was determined in a fluorescence based guanine nucleotide exchange assay, which measures the exchange of bodipy-GDP (fluorescently labeled GDP) for GppNHp (Non-hydrolyzable GTP analog) to generate the active state of KRAS in the presence of SOS1 (guanine nucleotide exchange factor). Inhibitors were serially diluted in DMSO and a volume of 0.1 μL was transferred to the wells of a black low volume 384-well plate. 5 μL/well volume of bodipy-loaded KRAS G12C diluted to 5 nM in assay buffer (25 mM Hepes pH 7.5, 50 mM NaCl, 10 mM MgCl2 and 0.01% Brij-35) was added to the plate and pre-incubated with inhibitor for 2 hours at ambient temperature. Appropriate controls (enzyme with no inhibitor or with a G12C inhibitor (AMG-510)) were included on the plate. The exchange was initiated by the addition of a 5 μL/well volume containing 1 mM GppNHp and 300 nM SOS1 in assay buffer. The 10 μL/well reaction concentration of the bodipy-loaded KRAS G12C, GppNHp, and SOS1 were 2.5 nM, 500 uM, and 150 nM, respectively. The reaction plates were incubated at ambient temperature for 2 hours, a time estimated for complete GDP-GTP exchange in the absence of inhibitor. For the KRAS G12D and G12V mutants, similar guanine nucleotide exchange assays were used with 2.5 nM as final concentration for the bodipy loaded KRAS proteins and with 4 hours and 3 hours incubation after adding GppNHp-SOS1 mixture for G12D and G12V respectively. A cyclic peptide described to selectively bind G12D mutant (Sakamoto et al., BBRC 484.3 (2017), 605-611) or internal compounds with confirmed binding were used as positive controls in the assay plates. Fluorescence intensities were measured on a PheraStar plate reader instrument (BMG Labtech) with excitation at 485 nm and emission at 520 nm.
Either GraphPad prism or Genedata Screener SmartFit was used to analyze the data. The IC50 values were derived by fitting the data to a four parameter logistic equation producing a sigmoidal dose-response curve with a variable Hill coefficient.

KRAS_G12C pERK = assay: Cellular pERK HTRF assay (KRAS_G12C pERK assay); format: cell-based, human; details: KRAS G12C cells, 4 hours incubation with compound, read-out: G12C_pERK
Description: MIA PaCa-2 (KRAS G12C; ATCC® CRL-1420), NCI-H358 (KRAS G12C; ATCC® CRL-5807), A427 (KRAS G12D; ATCC® HTB53), HPAFII (KRAS G12D; ATCC® CRL-1997), YAPC (KRAS G12V; DSMZ ACC382), SW480 (KRAS G12V; ATCC® CRL-228) and NCI-H838 (KRAS WT; ATCC® CRL-5844) cells are purchased from ATCC and maintained in RPMI 1640 media supplemented with 10% FBS (Gibco/Life Technologies). The cells are plated at 5000 cells per well (8 uL) into Greiner 384-well low volume, flat-bottom, and tissue culture treated white plates and incubated overnight at […], 5% CO2. The next morning, test compound stock solutions are diluted in media at 3× the final concentration and 4 uL are added to the cells, with a final concentration of 0.1% of DMSO. The cells are incubated with the test compounds for 4 hours (G12C and G12V) or 2 hrs (G12D) at 37° C., 5% CO2. Four uL of 4× lysis buffer with blocking reagent (Cisbio) are added to each well and plates are rotated gently (300 rpm) for 30 minutes at room temperature. Four uL per well of Cisbio anti Phospho-ERK 1/2 d2 is mixed with anti Phospho-ERK 1/2 Cryptate (1:1), and added to each well, incubated overnight in the dark at room temperature. Plates are read on the Pherastar plate reader at 665 nm and 620 nm wavelengths. Data are analyzed in Genedata Screener using SmartFit for IC50 values.

[1] = Human whole blood stability; format: in vitro ADME; details: percent remaining at 4 hr, 1 μM, 37° C.
Description: The whole blood stability of the exemplified compounds was determined by LC-MS/MS. The 96-Well Flexi-Tier™ Block (Analytical Sales & Services, Inc, Flanders, NJ) is used for the incubation plate containing 1.0 mL glass vials with 0.5 mL of blood per vial (pooled gender, human whole blood sourced from BIOIVT, Hicksville, NY or similar). Blood is pre-warmed in water bath to 37° C. for 30 minutes. 96-deep well analysis plate is prepared with the addition of 100 μL ultrapure water/well. 50 μL chilled ultrapure water/well is added to 96-deep well sample collection plate and covered with a sealing mat. 1 μL of 0.5 mM compound working solution (DMSO:water) is added to the blood in incubation plate to reach final concentrations of 1 μM, mixed by pipetting thoroughly and 50 μL is transferred 50 into the T=0 wells of the sample collection plate. Blood is allowed to sit in the water for 2 minutes and then 400 μL stop solution/well is added (acetonitrile containing an internal standard). The incubation plate is placed in the Incu-Shaker CO2 Mini incubator (Benchmark Scientific, Sayreville, NJ) at 37° C. with shaking at 150 rpm. At 1, 2 and 4-hr, the blood samples are mixed thoroughly by pipetting and 50 μL is transferred into the corresponding wells of the sample collection plate. Blood is allowed to sit in the water for 2 minutes and then 400 μL of stop solution/well is added. The collection plate is sealed and vortexed at 1700 rpm for 3 minutes (VX-2500 Multi-Tube Vortexer, VWR International, Radnor, PA), and samples are then centrifuged in the collection plate at 3500 rpm for 10 minutes (Allegra X-14R Centrifuge Beckman Coulter, Indianapolis, IN). 100 μL of supernatant/well is transferred from the sample collection plate into the corresponding wells of the analysis plate. The final plate is vortexed at 1700 rpm for 1 minute and analyze samples by LC-MS/MS. The peak area ratio of the 1, 2, and 4 hr samples relative to T=0 is used to determine the percent remaining. The natural log of the percent remaining versus time is used determine a slope to calculate the compounds half-life in blood (t1/2=0.693/slope).

[2] = tested on: KRAS_G12C pERK in MIA PaCa-2 cells; assay: Whole Blood pERK1/2 HTRF assay (KRAS_G12C WB pERK assay); format: cell-based, human; details: compound in whole blood, 4 hours, read-out: G12C_WB_pERK
Description: MIA PaCa-2 cells (KRAS G12C; ATCC® CRL-1420), HPAF-II (KRAS G12D; ATCC® CRL-1997) and YAPC (KRAS G12V; DSMZ ACC382) are maintained in RPMI 1640 with 10% FBS (Gibco/Life Technologies). For MIA PaCa-2 assay, cells are seeded into 96 well tissue culture plates (Corning #3596) at 25000 cells per well in 100 uL media and cultured for 2 days at 37° C., 5% CO2 before the assay. For HPAF-II and YAPC assay, cells are seeded in 96 well tissue culture plates at 50000 cells per well in 100 uL media and cultured for 1 day before the assay. Whole Blood are added to the 1 uL dots of compounds (prepared in DMSO) in 96 well plates and mixed gently by pipetting up and down so that the concentration of the compound in blood is 1× of desired concentration, in 0.5% DMSO. The media is aspirated from the cells and 50 uL per well of whole blood with test compound is added and incubated for 4 hours for MIA PaCa and YAPC assay; or 2 hours for HPAF-II assay, respectively at 37° C., 5% CO2. After dumping the blood, the plates are gently washed twice by adding PBS to the side of the wells and dumping the PBS from the plate onto a paper towel, tapping the plate to drain well. Fifty ul/well of 1× lysis buffer #1 (Cisbio) with blocking reagent (Cisbio) and Benzonase nuclease (Sigma Cat #E1014-5KU, 1:10000 final concentration) is then added and incubated at room temperature for 30 minutes with shaking (250 rpm). Following lysis, 16 uL of lysate is transferred into 384-well Greiner small volume white plate using an Assist Plus (Integra Biosciences, NH). Four uL of 1:1 mixture of anti Phospho-ERK 1/2 d2 and anti Phospho-ERK 1/2 Cryptate (Cisbio) is added to the wells using the Assist Plus and incubated at room temperature overnight in the dark. Plates are read on the Pherastar plate reader at 665 nm and 620 nm wavelengths. Data are analyzed in Genedata Screener using SmartFit for IC50 values.

pIC50 (KRAS G12C)	pIC50 (KRAS_G12C pERK; Homo sapiens, 4 h)	Human whole blood stability at 4 hr [1]	pIC50 ([2]; Homo sapiens)	pIC50 (KRAS_G12C pERK)	pIC50 [2]	SMILES
≥ 7.30	≥ 7.30	†† (WBS >70% but ≤90%)	6.00 to 7.00			COc1c(Cl)cccc1-c1c(C(F)(F)F)cc2c(nc(N3CC(C)(N(C)C)C3)c3nnn([C@H]4CCN(C(=O)/C=C/CF)[C@H](CC#N)C4)c32)c1F (single isomer, unassigned) [Example 3a]
≥ 7.30	≥ 7.30	††† (WBS >90%)	≥ 7.30			C[C@H](Oc1nc2c(F)c(-c3ccc(F)c4cccnc34)c(C(F)(F)F)cc2c2c1nnn2[C@H]1CCN(C(=O)/C=C/CF)[C@H](CC#N)C1)[C@@H]1CCCN1C (single isomer, unassigned) [Example 4a]
≥ 7.30	≥ 7.30	†† (WBS >70% but ≤90%)	7.00 to 7.30			C=CC(=O)N1CCC(n2nnc3c(O[C@@H](C)[C@@H]4CCCN4C)nc4c(F)c(-c5ccc(F)c6cccnc56)c(C(F)(F)F)cc4c32)CC1 (single isomer, unassigned) [Example 5a]
≥ 7.30		†† (WBS >70% but ≤90%)	≥ 7.30	≥ 7.30		C=CC(=O)N1CCC(n2nnc3c(O[C@@H](C)[C@@H]4CCCN4C)nc4c(F)c(-c5cccc6cccc(C#N)c56)c(C)cc4c32)CC1 (single isomer, unassigned) [Example 11b]
≥ 7.30	≥ 7.30	††† (WBS >90%)	≥ 7.30			C=CC(=O)N1CC[C@H](n2nnc3c(O[C@@H](C)[C@@H]4CCCN4C)nc4c(F)c(-c5cccc6cccc(C#N)c56)c(C)cc4c32)C[C@H]1C (single isomer, unassigned) [Example 14b]
≥ 7.30	≥ 7.30	††† (WBS >90%)	7.00 to 7.30			C=C(F)C(=O)N1CC[C@H](n2nnc3c(N4CC(N(C)CC)C4)nc4c(F)c(-c5c(C)c(C)cc6[nH]ncc56)c(C)cc4c32)C[C@H]1CC#N (single isomer, unassigned) [Example 15a]
≥ 7.30		††† (WBS >90%)	7.00 to 7.30	≥ 7.30		Cc1cc2c(nc(O[C@@H](C)[C@@H]3CCCN3C)c3nnn(C4CCN(C(=O)/C=C/CF)CC4)c32)c(F)c1-c1cccc2cccc(C#N)c12 (single isomer, unassigned) [Example 16b]
≥ 7.30	≥ 7.30	††† (WBS >90%)	6.00 to 7.00			COC/C=C/C(=O)N1CC[C@H](n2nnc3c(N4CC(C)(N(C)C)C4)nc4c(Cl)c(-c5ccc(F)c6cccnc56)c(Cl)cc4c32)C[C@H]1CC#N (single isomer, unassigned) [Example 18a]
≥ 7.30	≥ 7.30	†† (WBS >70% but ≤90%)	≥ 7.30			CN(C)C1(C)CN(c2nc3c(Cl)c(-c4ccc(F)c5cccnc45)c(Cl)cc3c3c2nnn3[C@H]2CCN(C(=O)/C=C/CF)[C@H](CC#N)C2)C1 (single isomer, unassigned) [Example 19a]
≥ 7.30	≥ 7.30	††† (WBS >90%)	6.00 to 7.00			COC/C=C/C(=O)N1CC[C@H](n2nnc3c(N4CC(C)(N(C)C)C4)nc4c(F)c(-c5ccc(F)c6cccnc56)c(C(F)(F)F)cc4c32)C[C@H]1CC#N (single isomer, unassigned) [Example 20]
≥ 7.30		†† (WBS >70% but ≤90%)		≥ 7.30	7.00 to 7.30	COC/C=C/C(=O)N1CC[C@H](n2nnc3c(O[C@@H](C)[C@@H]4CCCN4C)nc4c(F)c(-c5cnc(C)c6ccccc56)c(C)cc4c32)C[C@H]1CC#N (single isomer, unassigned) [Example 26b]
≥ 7.30	≥ 7.30	†† (WBS >70% but ≤90%)	7.00 to 7.30			C=CC(=O)N1CC[C@H](n2nnc3c(O[C@@H](C)[C@@H]4CCCN4C)nc4c(F)c(-c5cccc6c5c(CC#N)nn6C)c(C)cc4c32)C[C@H]1C (single isomer, unassigned) [Example 28b]
≥ 7.30	≥ 7.30	††† (WBS >90%)	6.00 to 7.00			C=C(F)C(=O)N1CC[C@H](n2nnc3c(N4CC(C)(N(C)CC)C4)nc4c(F)c(-c5c(C)c(F)cc6[nH]ncc56)c(C)cc4c32)C[C@H]1CC#N (single isomer, unassigned) [Example 29]
